Consider 125 molecules from a melting point compilation (Tetko et al.).

Usually melting point stands for the temperature, or range, at which the solid turns liquid.

In turn, `O=C(O)c1ccc(OCc2ccncc2)cc1` registered a melting point of 278 to 280 °C.

Molecule `O=C(Nc1ccc(N2CCOCC2)nc1)OCC(F)(F)F` showed a melting point of 204 to 206 °C.

The molecule `NC(=O)N1CCCCC1C(=O)O` (stereo not given) had a melting point of 139 to 141 °C.

For `O=C(c1cc(Br)c(S(=O)(=O)Cl)[nH]1)C(Cl)(Cl)Cl`, the melting point fell in the range of 144 to 146 °C.

`Cc1ccc(C(N)=S)c(C)c1` displayed a melting point of 59 to 63 °C.

`O=c1[nH]c(CCl)nc2sc3c(c12)CCCC3` displayed a melting point of 265 to 267 °C.

Turning to `CC(Cl)C(=O)Nc1ccnn1C(C)C` (stereo not given), the melting point fell in the range of 69 to 71 °C.

With `COc1ccccc1CNc1ccc2[nH]c(=O)[nH]c2c1`, the melting point fell in the range of 216 to 218 °C.

For `CCCNc1nnc(S)s1`, the melting point lay within 105 to 107 °C.

Molecule `NC(=S)c1cnn(-c2ccccc2)c1` showed a melting point of 181 to 183 °C.

As for `Cc1[nH]cnc1CC#N`, the melting point lay in the range of 164 to 166 °C.

`Cc1nc(-c2cc(C(=O)O)co2)cs1` gave a melting point of 186 to 188 °C.

For `CC(C)(C)C(=O)N1CCCC1C(=O)O` (stereo not given), the melting point lay in the range of 136 to 138 °C.

`N#Cc1nnc[nH]1` gave a melting point of 188 to 190 °C.

Take `CC(=O)N1CCc2ccc(S(=O)(=O)Cl)cc21`: the melting point was in the range of 144 to 146 °C.

In the case of `Cn1cnnc1S(C)(=O)=O`, the melting point was 132 to 134 °C.

In turn, `COc1cc(NC(=O)C2CC2C)c(C(=O)O)cc1OC` (stereo not given) showed a melting point of 207 to 209 °C.

For the molecule `O=C(O)c1ccc(NS(=O)(=O)c2ccc3c(c2)OCCO3)cc1`, the melting point fell in the range of 94 to 97 °C.

Consider `CCc1cc(C(=O)O)n[nH]1`, for which the melting point was 191 to 193 °C.

On to `O=Cc1ccc(OC(F)(F)C(=O)O)cc1`, for which the melting point is 146 to 148 °C.

As to `O=C(O)c1nc(-n2cnc3ccccc32)ccc1Cl`, the melting point was 192 to 194 °C.

Take `NC(=O)N1CCC(O)CC1`: the melting point was in the range of 147 to 149 °C.

In turn, `O=C(O)CCCn1cncn1` yielded a melting point of 140 to 142 °C.

On to `CN1N=C(c2ccncc2)CC1=O`, for which the melting point lay within 209 to 211 °C.

Molecule `OCc1cncc2ccccc12` had a melting point of 86 to 88 °C.

For `CC(=O)NC=C(Cl)Cl`, the melting point fell in the range of 85 to 87 °C.

As for `Cc1nnnn1-c1cc(N)ccc1C(=O)O`, the melting point was in the range of 203 to 205 °C.

The molecule `O=C(CCl)c1ccc2c(c1)COC2` gave a melting point of 109 to 111 °C.

`CCC(CC)(C(=O)O)c1ccc(Cl)c(Cl)c1` gave a melting point of 94 to 96 °C.

The molecule `Cc1ccc(NC(=O)OCC(F)(F)F)cc1` yielded a melting point of 89 to 93 °C.

`COc1ccc(C(=O)N2CCCC(C(=O)O)C2)c2ccccc12` (stereo not given) registered a melting point of 255 to 257 °C.

`CCOC(=O)N1CCC(NC(N)=S)CC1`: the melting point is 160 to 162 °C.

Regarding `N#CCc1ccc2ccccc2n1`, the melting point was in the range of 45 to 47 °C.

As to `CC1(C)NC(=O)N(CCBr)C1=O`, the melting point lay within 97 to 99 °C.

For `CC(O)c1ccccc1NC(=O)c1ccccc1` (stereo not given), the melting point was 111 to 113 °C.

With `N#Cc1cnn(-c2ccccc2)n1`, the melting point was 90 to 92 °C.

`CS(=O)(=O)CCOc1cccc(N)c1` displayed a melting point of 79 to 81 °C.

As for `CC(O)c1ccc(O)cc1` (stereo not given), the melting point fell in the range of 131 to 133 °C.

As to `COc1cc(C(=O)O)cc(NS(C)(=O)=O)c1OC`, the melting point lay within 214 to 216 °C.

Consider `CCOC(=O)c1nn(-c2ccccc2)cc1O`, for which the melting point is 86 to 88 °C.

Consider `C=CCS(N)(=O)=O`, for which the melting point was in the range of 31 to 33 °C.

Take `N#Cc1cnccc1N`: the melting point fell in the range of 170 to 172 °C.

On to `[N-]=[N+]=Nc1cccc2ncccc12`, for which the melting point is 61 to 63 °C.

In the case of `Nc1cc(=O)[nH]c(=O)n1Cc1ccccc1`, the melting point fell in the range of 284 to 286 °C.

`C#CCNC(=O)c1ccccc1N` returned a melting point of 96 to 98 °C.

`Nc1ncnc2sc3c(c12)CCCC3` returned a melting point of 239 to 241 °C.

The molecule `Cc1nnc(-c2ccc(C(=O)O)cc2)n1C` showed a melting point of 269 to 271 °C.

`ClCc1nnc(-c2cccc(Cl)c2)o1` showed a melting point of 76 to 78 °C.

In the case of `Cc1cc(=O)n2c(n1)NCC2`, the melting point is 159 to 161 °C.

Molecule `NCCNc1cn[nH]c(=O)c1Cl` came in with a melting point of 195 to 197 °C.

The molecule `C#CCOc1ccc(N)cc1` displayed a melting point of 49 to 51 °C.

Consider `O=C(O)C1CN(C(=O)c2ccco2)c2ccccc2O1` (stereo not given), for which the melting point lay in the range of 154 to 156 °C.

With `CC(O)C(NC(=O)C(C)(C)C)C(=O)O` (stereo not given), the melting point lay within 156 to 158 °C.

In turn, `CC(C)c1cc(C(=O)O)c2ccccc2n1` returned a melting point of 141 to 143 °C.

Turning to `CNc1cc(C(F)(F)F)nc2ccccc12`, the melting point lay within 159 to 161 °C.

Turning to `CCOc1c(N)cc(Cl)cc1Br`, the melting point was in the range of 45 to 47 °C.

With `NC(=O)c1ccc(NCCO)c([N+](=O)[O-])c1`, the melting point lay in the range of 218 to 220 °C.

The molecule `O=C(O)CNC(=O)c1ccc2[nH]nnc2c1` showed a melting point of 215 to 217 °C.

With `COc1ccc(CNC(N)=S)cc1OC`, the melting point was 191 to 193 °C.

In turn, `Cc1cnc(C#N)c(C)c1` showed a melting point of 58 to 60 °C.

Take `CC(C)CN1CCCC(C(=O)O)C1` (stereo not given): the melting point lay in the range of 108 to 110 °C.

Consider `NC(=O)c1c(N)sc2c1CCN(Cc1ccccc1)C2`, for which the melting point was in the range of 76 to 78 °C.

`O=C(O)Cc1coc(-c2ccccc2)n1`: the melting point was 148 to 150 °C.

`CC1(c2ccc(F)cc2F)NC(=O)NC1=O` (stereo not given) came in with a melting point of 194 to 196 °C.

The molecule `CC(C)(O)c1nc2ccccc2s1` yielded a melting point of 89 to 91 °C.

As for `Cc1cn(-c2ccccc2Cl)nc1C(=O)O`, the melting point was in the range of 209 to 211 °C.

As for `CCCCCCCCCCCCSc1nc2sc3c(c2c(=O)n1-c1ccccc1)CCCC3`, the melting point was in the range of 84 to 86 °C.

`Nc1nonc1-c1ccc(Cl)c(Cl)c1` yielded a melting point of 143 to 145 °C.

Turning to `O=C1COc2ccccc2C(=O)N1`, the melting point was 149 to 151 °C.

With `O=C(NCC1CCCNC1)Nc1cccc(F)c1` (stereo not given), the melting point fell in the range of 123 to 125 °C.

`CN(C(=O)c1ccco1)c1ccccc1C(=O)O` gave a melting point of 189 to 191 °C.

Turning to `NS(=O)(=O)CC(=O)O`, the melting point is 119 to 121 °C.

`N#Cc1cccnc1-n1cccn1` registered a melting point of 114 to 116 °C.

The molecule `CC1(CCc2ccccc2)NC(=O)NC1=O` (stereo not given) showed a melting point of 179 to 181 °C.

On to `NC(=S)C1CC1`, for which the melting point was 112 to 114 °C.

In turn, `CS(=O)(=O)C(Cc1ccccc1)C(=O)O` (stereo not given) came in with a melting point of 116 to 118 °C.

`COC(=O)c1c[nH]cc1-c1ccc([N+](=O)[O-])cc1` gave a melting point of 244 to 246 °C.

`CCOc1cc(C(=O)O)ccn1` registered a melting point of 171 to 173 °C.

For the molecule `NS(=O)(=O)CC1CCCC1`, the melting point was 42 to 44 °C.

With `O=C(NO)c1ccccc1Br`, the melting point was in the range of 182 to 184 °C.

`O=C(O)CNC(=O)c1ncccc1O` displayed a melting point of 234 to 236 °C.

`COc1ccc2oc(C=O)cc2c1` registered a melting point of 59 to 61 °C.

In turn, `CC(C)c1c(C(=O)O)cnn1-c1cccc(Cl)c1` registered a melting point of 161 to 163 °C.

Regarding `Cc1ccc(N)cc1S(=O)(=O)Nc1cccc(Cl)c1`, the melting point lay within 158 to 160 °C.

In the case of `Clc1ncnc2[nH]ccc12`, the melting point lay within 195 to 197 °C.

`CC(=O)Nc1scc(-c2cccs2)c1C(=O)O` showed a melting point of 227 to 229 °C.

In turn, `COc1cccc(COCC(N)=NO)c1` had a melting point of 59 to 61 °C.

With `Cc1nnc(-c2cccc(C(=O)O)c2)o1`, the melting point lay within 241 to 243 °C.

With `Cc1ccc(S(=O)(=O)N2CCCCC2)cc1N`, the melting point lay in the range of 106 to 110 °C.

Take `N=C1N=C2C=CC(Br)=CN2Cc2ccccc21`: the melting point fell in the range of 178 to 180 °C.

Regarding `CCc1cccc2c(CC#N)c[nH]c12`, the melting point was in the range of 115 to 117 °C.

As for `Cc1nc(-c2ccc(NC(=O)OCC(F)(F)F)cc2)cc(=O)[nH]1`, the melting point was 246 to 248 °C.

In turn, `O=C(CCl)NC1CCCC1` came in with a melting point of 73 to 75 °C.

As for `Nc1ccnc(C(=O)O)c1`, the melting point was 198 to 200 °C.

`COc1cccc2c1CCCC(=O)N2` returned a melting point of 159 to 161 °C.

As for `N#Cc1nc(-c2ccccc2)oc1NN`, the melting point was in the range of 209 to 211 °C.

For the molecule `NN1C(=O)CNC1=O`, the melting point was in the range of 190 to 192 °C.

Molecule `O=C1CCC(=O)N1CCBr` came in with a melting point of 53 to 55 °C.

In turn, `CC(=O)c1cccc(-n2cnnn2)c1` showed a melting point of 155 to 157 °C.

Take `O=C(O)C1CCCN1S(=O)(=O)c1cccc([N+](=O)[O-])c1` (stereo not given): the melting point was 182 to 184 °C.

In turn, `CC(=O)CC(=O)Nc1ccccc1C(F)(F)F` showed a melting point of 60 to 62 °C.

In the case of `CCCCc1ccnc(N)n1`, the melting point fell in the range of 99 to 101 °C.

The molecule `O=C(O)Cc1csc(-c2ccco2)n1` had a melting point of 136 to 138 °C.

Molecule `Cc1cc(S(N)(=O)=O)cc(NC(=O)CCl)c1C` showed a melting point of 210 to 212 °C.

Take `CC1C(=O)NCCN1C(=O)c1ccccc1` (stereo not given): the melting point fell in the range of 146 to 148 °C.

With `O=[N+]([O-])c1ccc(S(=O)(=O)Cl)c(F)c1`, the melting point was 72 to 74 °C.

In turn, `O=C1NCCNc2ccccc21` displayed a melting point of 151 to 153 °C.

Regarding `CC(C)(C)OC(=O)NC1(CO)CC1`, the melting point was in the range of 75 to 77 °C.

Molecule `Clc1ccc(Cl)c(OCCBr)c1` displayed a melting point of 57 to 59 °C.

Molecule `CNc1ccc(Oc2ccccn2)cc1` returned a melting point of 126 to 128 °C.

As to `Cc1[nH]nc(C(=O)O)c1S(=O)(=O)Cl`, the melting point fell in the range of 150 to 152 °C.

In the case of `O=Cc1cc(Br)c2c(c1)OCO2`, the melting point lay in the range of 117 to 119 °C.

The molecule `CCc1sc(N)c(C(N)=O)c1C` registered a melting point of 134 to 136 °C.

As to `Cc1ccc(NC(=O)C2CC2)cc1N`, the melting point lay in the range of 163 to 165 °C.

The molecule `Cc1cc(=O)n2c(C)csc2c1C#N` returned a melting point of 178 to 180 °C.

The molecule `O=S(=O)(F)Cc1ccccc1Cl` registered a melting point of 69 to 71 °C.

On to `CC(=O)c1ccc(OCC#N)cc1`, for which the melting point fell in the range of 82 to 84 °C.

In turn, `Cc1nccn1-c1ccc(C#N)cn1` displayed a melting point of 213 to 215 °C.

`O=Cc1ccc(-c2ccc(C(=O)O)cc2)o1` had a melting point of 313 to 315 °C.

As to `Nc1onc(-c2ccc(Br)s2)c1-c1ccc(F)cc1`, the melting point fell in the range of 141 to 143 °C.

The molecule `Cn1ncnc1-c1ccc(C(=O)O)cc1` registered a melting point of 240 to 242 °C.

Turning to `Cc1cc(N)c(C)cn1`, the melting point lay within 145 to 147 °C.

In turn, `COc1cc(OC)c2cc(C(=O)O)[nH]c2c1OC` yielded a melting point of 181 to 183 °C.

As to `O=C(O)c1ccc(OCC(=O)C2CC2)cc1`, the melting point lay within 157 to 159 °C.

`CC1CNC(=Nc2cnc3ccccc3c2)S1` (stereo not given): the melting point fell in the range of 144 to 146 °C.
